Test results as given in patent publication US8143236B2, “Chemoprotective methods” (BioNumerik Pharmaceuticals, Inc., priority 2006, dated 2012).

Key:
[1] = in vivo; cited from earlier work
[2] = tested on: paclitaxel-induced decreases in NCV; assay: Paclitaxel-induced decrease in nerve conduction velocity (NCV); format: in vivo; settings: rats; paclitaxel 6 mg/kg i.v. 5 times every other day; 1,000 mg/kg i.v. immediately after paclitaxel
[3] = tested on: decreases in NCV by cisplatin; assay: Cisplatin-induced decrease in nerve conduction velocity (NCV); format: in vivo; settings: rats, cisplatin 2 mg/kg i.p. twice a week for 6 weeks, 1,000 mg/kg i.v. immediately before cisplatin
Description: Effects of the Formula (I) compound, Tavocept™ (dimesna; disodium 2,2′-dithio-bis-ethane sulfonate), on decreases in nerve conduction velocity (NCV) induced by cisplatin (2 mg/kg) administered by i.p. injection twice a week for 6 consecutive weeks were evaluated in rats.

[4] = Japan Phase III Clinical Trial, NSCLC patients receiving paclitaxel and cisplatin; format: in vivo, human
Description: (§1) The Japan Phase III Clinical Trial was conducted as a double-blind study because peripheral neuropathy is diagnosed based on subjective symptoms evaluated through clinical interviews, lab tests, and the like. Accordingly, evaluations by both physicians and patients are highly important. […] A placebo was used as control since there is no established therapy or drug for preventing peripheral neuropathy. Because the severity of peripheral neuropathy is evaluated based on patients' reports (i.e., subjective symptoms), the Patient Neurotoxicity Questionnaire (PNQ©) (also known as the Peripheral Neuropathy Questionnaire) was used in primary evaluation. The CIPN-20 questionnaire and the National Cancer Institute-Common Toxicity Criteria (NCI-CTC) were used in secondary evaluation. The incidence and severity of adverse reactions, time to their onset, etc. and the like, were compared between patients treated with Tavocept™ and those given a placebo using the aforementioned methods.
(§2) The Primary Endpoint of the Japan Phase III Clinical Trial described in the present invention was specifically designed to test the hypothesis of whether chemotherapy-induced intermittent peripheral neuropathy would occur. The utilization of physical examination, laboratory tests, and highly detailed patient evaluation, especially utilizing the Patient Neurotoxicity Questionnaire (PNQ©), also known as the Peripheral Neuropathy Questionnaire, was responsible for the identification and characterization of this novel intermittent form of chemotherapy-induced peripheral neuropathy. The results illustrated in FIG. 3 indicate that intermittent peripheral neuropathy was specifically identified and measured in the Japan Phase III Clinical Trial. […] Additionally, the results illustrated in FIG. 4 and FIG. 5 also support the finding that the Formula (I) compound, Tavocept™, can mitigate and/or prevent intermittent peripheral neuropathy. FIG. 4 provides data supporting the merit of utilizing the Patient Neurotoxicity Questionnaire (PNQ©), also known as the Peripheral Neuropathy Questionnaire, and the Generalized Estimating Equation (GEE) statistical method to evaluate intermittent and cumulative peripheral neuropathy.

[5] = tested on: chemotherapy-induced peripheral neuropathy; assay: as above; format: in vivo, human; settings: NSCLC; paclitaxel/Tavocept/cisplatin vs paclitaxel/saline placebo/cisplatin
Description: as §1, §2

[6] = after intravenous administration; intracellular glutathione as a cofactor; cited from earlier work
[7] = Randomized double-blind placebo-controlled clinical study with paclitaxel: hypersensitivity Adverse Events by infusion time and concentration (FIG. 1); format: in vivo, human; settings: for proportion of patients with at least one hypersensitivity Adverse Event: entire treated population: paclitaxel plus either placebo or drug (1:1)
Description: FIG. 1 illustrates a comparison of the number of hypersensitivity Adverse Events between groups of patients in whom 2,2′-dithio-bis-ethane sulfonate or a placebo was infused over (1) 30 minutes, (2) 30 and 45 minutes, or (3) 45 minutes. The chemotherapeutic agent administered was paclitaxel. In this Figure, n=#, equals the number of patients.
New methods of administration of agents such as 2,2′-dithio-bis-ethane sulfonate, pharmaceutically-acceptable salts, and/or an analog thereof, have now been discovered in connection with a human clinical study comprising a randomized, double-blind, placebo-controlled study with a 1:1 randomization. Initial blinded study results support the ability of compounds such as 2,2′-dithio-bis-ethane sulfonate to markedly enhance overall safety, decrease overall Adverse Events, decrease hypersensitivity-based Adverse Events, and increase the time of Adverse Event onset, while maintaining at least the same therapeutic indices (e.g. dose level administered in a prescribed specific time schedule, including duration of administration and frequency), and reduction, prevention, mitigation, and/or delay of toxicities associated with the administration of chemotherapeutic agents.
This reduction in the proportion of patients experiencing hypersensitivity reactions overall represents a medically significant difference in such adverse reactions. It represents a reduction in the risk of an observed potentially serious and life-threatening Adverse Event by approximately 29% in the entire study population (i.e., both placebo and 2,2′-dithio-bis-ethane sulfonate populations).
FIG. 1 illustrates a comparison of the number of hypersensitivity Adverse Events between groups of patients in whom 2,2′-dithio-bis-ethane sulfonate or a placebo was infused over (1) 30 minutes, (2) 30 minutes and 45 minutes, or (3) 45 minutes. In addition, the total number of hypersensitivity Adverse Events, the mean time to the first hypersensitivity Adverse Event, and a variety of the types of hypersensitivity Adverse Events were also shown. […] This reduction in the proportion of patients experiencing hypersensitivity Adverse Events overall represents a reduction in the risk of an observed potentially serious and life-threatening Adverse Event by approximately 29% in the entire study population (i.e., both placebo and disodium 2,2′-dithio-bis-ethane sulfonate populations).

[8] = tested on: sciatic and tibial nerves; assay: Histopathological abnormalities of sciatic and tibial nerves caused by paclitaxel; format: in vivo; settings: paclitaxel 30 mg/kg i.v. every other day (3 doses); 2,000 mg/kg i.v. immediately after paclitaxel
[9] = tested on: paclitaxel-induced thermoparesthesia; assay: Paclitaxel-induced thermoparesthesia model; format: in vivo, rats
[10] = tested on: tubulin; settings: in vitro; paclitaxel 6 μM; cited from earlier work

N.N.[Cl][Pt][Cl] [cisplatin]
cumulative dose above which cisplatin-induced neuropathy usually occurs [1]: exceeds 300 mg/m^2

O=S(=O)([O-])CCSSCCS(=O)(=O)[O-].[Na+].[Na+] [Tavocept™, disodium 2,2′-dithio-bis-ethane sulfonate]
inhibition of paclitaxel-induced decreases in NCV [2]: 92.2%
inhibition rate of decreases in NCV by cisplatin ([3]; 5 weeks after starting cisplatin): 53.6%
inhibition rate of decreases in NCV by cisplatin ([3]; 6 weeks after starting cisplatin): 64.7%
survival of patients with NSCLC ([4]; Tavocept and chemotherapy): medically important increase in survival
survival time of patients with adenocarcinoma ([4]; Tavocept and chemotherapy): medically important increase in survival time
chemotherapy-induced anemia, nausea/vomiting, fatigue, and kidney damage ([4]; clinical trial population): medically important reductions
hematological function (hemoglobin, hematocrit, erythrocyte levels) ([4]; patients with non-small cell lung carcinoma and adenocarcinoma): maintenance or stimulation of hematological function
reduction in severe (Grade D or E) intermittent or cumulative peripheral neuropathy (FIG. 5) [5]: ~50%
uptake and metabolism [6]: rapidly taken up in the kidney and metabolized into mesna
proportion of patients with at least one hypersensitivity Adverse Event ([7]; 100 mg/mL over 45 minutes): approximately 30%
proportion of patients with at least one hypersensitivity Adverse Event ([7]; 200 mg/mL over 30 minutes): approximately 42%
reduction in the overall proportion of patients experiencing hypersensitivity reactions ([7]; 45 min 100 mg/mL vs 30 min 200 mg/mL, absolute difference): approximately 12%
reduction in hypersensitivity Adverse Events in the drug treatment population ([7]; 45 min 100 mg/mL vs 30 min 200 mg/mL, assumes no placebo effect): ≤ 57%
reduction in the risk of hypersensitivity Adverse Event in the entire study population ([7]; 45 min 100 mg/mL vs 30 min 200 mg/mL, placebo and drug populations together): approximately 29%
increases in the incidence of histopathological abnormalities of the sciatic and tibial nerves [8]: inhibited
inhibition rates of thermoparesthesia caused by paclitaxel ([9]; paclitaxel 12 mg/kg i.p. once a week for 5 weeks, 2,000 mg/kg i.v. immediately after paclitaxel): 19.2-34.1%
maximum inhibition rate of paclitaxel-induced thermoparesthesia ([9]; rats, paclitaxel 6 mg/kg i.v. 5 times every other day, 1,000 mg/kg): 41.7%
inhibition of paclitaxel-induced thermoparesthesia ([9]; rats, paclitaxel 6 mg/kg i.v. 5 times every other day, 1,000 mg/kg i.v. immediately after paclitaxel): 27.5-59.2%
maximum inhibition rate of paclitaxel-induced thermoparesthesia ([9]; rats, paclitaxel 6 mg/kg i.v. 5 times every other day, 2,000 mg/kg): 41.5%
concentration at which tubulin polymerization induced by paclitaxel is inhibited [10]: 6 mM
